# According to patent US4690822A, “Novel drug carrier and pharmaceutical preparation comprising the same” (Fujisawa Pharmaceutical Co., Ltd., priority 1985, dated 1987):
# How the values were obtained:
# [1] = fasting state; S.E. 0.7 min.; cited from earlier work
# [2] = Solubility of FK 235 in water; format: physicochemical
smiles,measurement,setting,value
O [water],half-time of the passage of fluid through pylorus,[1],13.1 min
"COC(=O)C1=C(C#N)NC(C)=C(C(=O)OC(C)C)C1c1cccc([N+](=O)[O-])c1 (centres unmarked) [FK 235, Isopropyl 6-cyano-5-methoxycarbonyl-2-methyl-4-(3-nitrophenyl)-1,4-dihydropyridine-3-carboxylate]",solubility,[2],< 2 µg/mL
